{"source": "paper PMC7881127", "about": "“Cholesterol as a modulator of cannabinoid receptor CB2 signaling” (Scientific Reports, 2021)", "target": "cannabinoid receptor CB2 (Homo sapiens, UniProt P34972)", "sequence (P34972 whole entry)": "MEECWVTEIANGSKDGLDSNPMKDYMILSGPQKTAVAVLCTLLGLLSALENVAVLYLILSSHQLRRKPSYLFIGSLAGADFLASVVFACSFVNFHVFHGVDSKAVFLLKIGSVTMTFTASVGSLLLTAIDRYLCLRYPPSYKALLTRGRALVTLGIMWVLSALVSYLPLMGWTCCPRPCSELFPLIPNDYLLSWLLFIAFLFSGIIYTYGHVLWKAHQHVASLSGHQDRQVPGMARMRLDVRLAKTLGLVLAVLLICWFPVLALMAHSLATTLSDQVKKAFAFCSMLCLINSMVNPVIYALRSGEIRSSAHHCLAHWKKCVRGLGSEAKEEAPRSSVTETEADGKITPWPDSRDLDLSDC", "assay": "GEF G protein activation assay on purified CB2 reconstituted in liposomes", "assay_type": "biochemical", "set-up": "E. coli construct) (cleaved yes); twin-Streptag (N); His10 (C); made in house; host or cells: E. coli BL21 (DE3) and Expi293F GNTI-", "from_the_text": "To assess the possible role of post-translational modifications of CB2 on its activation by the MRI ligands, the recombinant CB2 receptor was isolated from two different expression cell lines, E. coli BL21 (DE3)[41] and Expi293F GNTI^-[42]. The protein was purified and reconstituted into lipid bilayers containing 1-palmitoyl-2-oleoyl-glycero-3-phosphocholine (POPC) and, 1-palmitoyl-2-oleoyl-sn-glycero-3-phospho-(1′-rac-glycerol) (POPG) at a molar ratio of 3/1, either supplemented or not supplemented with cholesterol, as described in “Methods”[10],[13]. We reported previously that the presence of phospholipids with a negatively charged headgroup stabilizes CB2 protein in lipid bilayers. Therefore, purified CB2 was reconstituted into POPC/POPG (3/1, mol/mol) liposomes containing 0, 20 and 40 mol% cholesterol (reported as total content of lipids) as described in “Methods”. In one case, the protein purified from E. coli cells was reconstituted into lipids extracted from brain tissue (Avanti Polar Lipids). The ratio of protein-to-lipid in the resulting samples was in the range of 1:850 to1:1100 (mol/mol). The levels of protein, and the density of ligand binding sites for receptor preparations reconstituted in liposomes with different content of cholesterol varied only slightly (Supporting Fig. 5a,b).\nFigure 7 Activation of G protein on CB2 receptor reconstituted in liposomes. Liposome composition: 75% POPC, 25% POPG and cholesterol content relative to total phospholipids as indicated, or total lipids extracted from bovine brain, as indicated. Proteins were reconstituted at a protein-to-lipid ratio in the range 1:850 to 1:1100 mol/mol. (a–d) CB2 purified from E. coli cells. (e,f) CB2 purified from Expi293F GNTI^- cells. Average values of four independent measurements are plotted (n = 4). Dotted lines represent the rates of activation of G protein in the absence of a ligand.\nReconstitution of the purified CB2 into liposomes was performed as described earlier. Briefly, 200 μg of the purified protein was mixed with 2 mg of lipid mixture (POPC:POPG, 3:1, mol/mol without or with addition or 20 mol% or 40 mol% of cholesterol) solubilized in 1% CHAPS at a concentration of 5 mg lipid/mL, and incubated on ice for 30 min. The detergents were then removed on 4 mL Detergent Removal spin column (Pierce), according to manufacturer’s instructions. The combined filtrate containing proteoliposomes was collected, and aliquots frozen in liquid nitrogen. Frozen liposomes were stored at − 80 °C until further use. Content of protein in proteoliposomes was determined by BioRad DC assay.\nThe subunits of G protein were expressed and purified as described previously. The nucleotide exchange assay was performed as previously described."}
{"compound": "CC(=O)OCCn1c(=NC(=O)C2C(C)(C)C2(C)C)sc2cc(Cl)ccc21", "note": "[MRI-2646, 2-(6-Chloro-2-((2,2,3,3-tetramethylcyclopropane-1-carbonyl)imino)benzo[d]thiazol-3(2H)-yl)ethyl acetate]", "values": [{"measurement": "Pharmacological category in GEF assay", "setting": "CB2 from E. coli, POPC/POPG liposomes devoid of cholesterol", "value": "partial agonist"}, {"measurement": "Pharmacological category in GEF assay", "setting": "CB2 from E. coli, liposomes with 20% or 40% cholesterol or brain lipid extract", "value": "partial inverse agonist"}, {"measurement": "Pharmacological category in GEF assay", "setting": "CB2 from Expi293F GNTI- (HEK) cells, liposomes with 40% of cholesterol", "value": "partial inverse agonist"}, {"measurement": "Pharmacological category in GEF assay", "setting": "CB2 from Expi293F GNTI- cells, liposomes without cholesterol", "value": "partial agonist"}]}
